Laboratory results as given in patent publication US10610522B2, “Methods for retreating irritable bowel syndrome (IBS)” (Salix Pharmaceuticals, Inc., priority 2014, dated 2020).

Assays:
[1] = tested on: hepatic encephalopathy (HE), commonly-occurring infections; experiment: Infection rates in cirrhotic patients with HE on long-term rifaximin 550 mg BID (RCT and open-label maintenance); type: in vivo; conditions: for Any infection: rate = number of subjects/PEY; for C. difficile infection / Cellulitis / Peritonitis / Pneumonia / Urinary tract/kidney infection: human, in vivo
From the text: Cirrhosis patients can have an increased risk of infections and subsequent hospitalizations, leading to increased mortality. […] A description of the OLM and RCT can be found in WO 2011/005388, “METHODS OF TREATING HEPATIC ENCEPHALOPATHY,” which is incorporated herein by reference in its entirety. In the analysis below, the effect of long term RFX treatment on infection rates and antibiotic use was examined.
Patients with cirrhosis and ≥2 overt HE episodes within 12 months were enrolled in the RCT (RFX=140; placebo [PBO]=159); 170 new patients, in addition to 70 RFX and 82 PBO patients who rolled over from the RCT were enrolled in OLM. The “All RFX group” (n=392) consisted of RFX-treated patients in both studies. Infection rates per person exposure years (PEY) were compared across RCT and All RFX groups, and antibiotic use over time was examined.
In the 6 month RCT, RFX exposure was 50 PEY vs 46 PEY in the PBO group. Long term RFX exposure was for median=427 (2-1427) days, or 510 PEY. […] Overall, use of antibiotics (oral and intravenous) remained the same or declined with time.

[2] = tested on: IBS-D; experiment: TARGET 3: repeat treatment with rifaximin 550 mg TID in IBS-D (open-label, double-blind first and second repeat treatment); type: in vivo, human
From the text: This study consists of several treatment phases, and is initiated with a placebo run-in treatment during the Screening/Treatment 1 Phase. The placebo run-in is included in the design to disqualify subjects from enrollment if they no longer meet IBS symptom related entry criteria at the end of the Screening/Treatment 1 Phase (e.g., spontaneous improvement). […] Subjects who achieve treatment success in both IBS-related abdominal pain and stool consistency during at least two of the four week follow-up period are classified as responders and enter a treatment free Maintenance Phase 1. Non-responders are withdrawn from the study to provide an enriched population of subjects who respond to treatment with rifaximin. The treatment free Maintenance Phase 1 is variable in time (up to 18 weeks in total) and depends upon recurrence (e.g., absence of treatment success in both IBS related abdominal pain or stool consistency).
The subjects remain blinded to placebo received during Treatment 1. Subjects with recurrence enter the DBR Treatment 3 Phase.
Subjects are considered to have met recurrence criteria or have “relapsed” when they experience the recurrence of abdominal pain OR stool consistency for at least 3 weeks during a 4-week follow-up period. […] Therefore a recurrence of both symptoms is not required to define a “relapse”.
The study was a multi-center, randomized, double-blind, placebo-controlled trial in adult subjects with non-C IBS. The study duration was up to 51 weeks, with approximately 600 patients.
The Treatment 1 or Screening phase is the 7-13 days prior to study Day 1.
The proportion of subjects who were responders to repeat treatment in both IBS-related abdominal pain and stool consistency were evaluated during the 4 week treatment-free follow-up (Primary Evaluation Period, PEP) in the DBR (Double Blind Repeat) of the Treatment 3 Phase.
In this analysis, when a weekly response was absent for either the abdominal pain or stool consistency component for at least 3 weeks during a rolling consecutive 4-week assessment period; the subject is considered to have recurrence.
Further, the proportion of subjects who were responders to repeat treatment in both IBS-related abdominal pain and stool consistency during the PEP in the DBR Treatment 3 Phase and that had no recurrence through the end of Maintenance Phase 2 were assessed.
Further, the proportion of subjects were assessed who were responders to repeat treatment for IBS-related bloating during the PEP in the DBR Treatment 3 Phase.
The intent-to-treat (ITT) population included subjects who were randomized and received at least one dose of the study drug in the Treatment 3/DBR Treatment Phase. These subjects served as the primary analysis population. An efficacy analysis was conducted on the ITT population.
Double-Blind Phase of the Study (Response type—durable and maintained): Proportion that responded to the composite FDA Endpoint of relief in both IBS-related Abdominal Pain AND Stool Consistency during the PEP in the first repeat double-blind, placebo controlled treatment phase AND continued to respond without recurrence through the end of Week 6 following the second repeat double-blind, placebo controlled treatment.
Double-Blind Repeat Treatment and follow-up (Response type—durable): Proportion that responded to the composite FDA Endpoint of relief in both IBS-related Abdominal Pain AND Stool Consistency during the PEP in the first repeat double-blind, placebo controlled treatment phase AND continued to respond without recurrence through the end of Week 12, independent of any additional treatment.
At the end of Week 6, patients were assessed for response to treatment. […]

[3] = target: T1, P-glycoprotein (Homo sapiens, UniProt P08183); experiment: Bidirectional permeability and efflux ratio of rifaximin in Caco-2 cells with P-glycoprotein inhibitors; type: in vitro ADME; conditions: for Decrease of rifaximin ER in presence of GF120918 (0.5 μM) and verapamil (60 μM): rifaximin 5 μM
T1 construct: Caco-2 cells, a human epithelial colorectal adenocarcinoma cell line; endogenous in cells; host or cells: Caco-2
T1 sequence (P08183 whole entry): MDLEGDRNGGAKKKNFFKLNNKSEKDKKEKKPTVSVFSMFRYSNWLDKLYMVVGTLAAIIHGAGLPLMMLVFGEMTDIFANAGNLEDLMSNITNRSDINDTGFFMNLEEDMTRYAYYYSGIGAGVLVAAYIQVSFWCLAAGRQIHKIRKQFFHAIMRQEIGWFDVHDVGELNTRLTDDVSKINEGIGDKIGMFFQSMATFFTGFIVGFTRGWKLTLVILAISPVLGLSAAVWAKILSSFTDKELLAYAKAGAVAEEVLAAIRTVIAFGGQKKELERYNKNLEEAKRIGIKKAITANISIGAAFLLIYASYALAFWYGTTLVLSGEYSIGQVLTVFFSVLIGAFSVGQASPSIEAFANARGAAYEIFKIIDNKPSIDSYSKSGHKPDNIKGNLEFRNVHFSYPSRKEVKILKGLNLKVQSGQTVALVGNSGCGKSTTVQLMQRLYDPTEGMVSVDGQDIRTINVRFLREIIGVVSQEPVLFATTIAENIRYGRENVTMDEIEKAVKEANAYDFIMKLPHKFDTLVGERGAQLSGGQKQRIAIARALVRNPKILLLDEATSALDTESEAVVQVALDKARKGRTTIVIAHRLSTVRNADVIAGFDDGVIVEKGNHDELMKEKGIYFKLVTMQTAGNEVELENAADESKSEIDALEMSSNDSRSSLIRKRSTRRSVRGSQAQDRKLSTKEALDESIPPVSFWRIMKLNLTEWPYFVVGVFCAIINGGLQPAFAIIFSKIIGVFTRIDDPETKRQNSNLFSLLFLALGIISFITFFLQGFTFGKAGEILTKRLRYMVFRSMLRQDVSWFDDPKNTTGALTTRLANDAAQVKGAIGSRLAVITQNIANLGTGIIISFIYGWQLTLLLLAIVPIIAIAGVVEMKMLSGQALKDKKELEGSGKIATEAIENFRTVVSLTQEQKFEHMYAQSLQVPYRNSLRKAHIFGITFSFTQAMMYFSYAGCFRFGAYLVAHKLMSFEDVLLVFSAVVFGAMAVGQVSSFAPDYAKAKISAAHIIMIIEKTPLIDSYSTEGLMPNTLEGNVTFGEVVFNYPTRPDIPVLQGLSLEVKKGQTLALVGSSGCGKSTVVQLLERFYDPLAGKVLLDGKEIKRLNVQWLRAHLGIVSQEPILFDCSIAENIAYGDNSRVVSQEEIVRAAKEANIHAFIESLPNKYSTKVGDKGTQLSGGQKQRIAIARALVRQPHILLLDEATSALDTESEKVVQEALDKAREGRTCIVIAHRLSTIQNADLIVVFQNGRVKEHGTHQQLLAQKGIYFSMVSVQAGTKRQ
From the text: The ER is the ratio of efflux permeability (basolateral to apical, B-A) to absorptive permeability (apical to basolateral, A-B), and values >1 are indicative of greater efflux than absorption.

[4] = TARGET 3, month following repeat treatment, Worst-Case Analysis, 550 mg TID, N = 328

SMILES: CO[C@H]1/C=C/O[C@@]2(C)Oc3c(C)c(O)c4c(O)c(c5c(nc6cc(C)ccn65)c4c3C2=O)NC(=O)/C(C)=C\C=C\[C@H](C)[C@H](O)[C@@H](C)[C@@H](O)[C@@H](C)[C@H](OC(C)=O)[C@@H]1C [Rifaximin, (2S,16Z,18E,20S,21S,22R,23R,24R,25S,26S,27S,28E)-5,6,21,23,25 Pentahydroxy-27-methoxy-2,4,11,16,20,22,24,26-octamethyl-2,7-(epoxypentadeca-(1,11,13)trienimino) benzofuro (4,5-e) pyrido(1,2-a) benzimidazole-1,15(2H)-dione,25-acetate]
- Any infection ([1]; All RFX patients (n = 392), PEY = 510): 214 (0.072) N (rate*)
- Any infection ([1]; RCT RFX 550 mg BID (n = 140), PEY = 50): 46 (0.112) N (rate*)
- C. difficile infection [1]: 6 (0.012) N (rate*)
- Cellulitis [1]: 34 (0.071) N (rate*)
- Peritonitis [1]: 22 (0.044) N (rate*)
- Pneumonia [1]: 42 (0.084) N (rate*)
- Urinary tract/kidney infection [1]: 83 (0.193) N (rate*)
- C. difficile infection ([1]; 6 months): 2 (0.040) N (rate*)
- Cellulitis ([1]; 6 months): 3 (0.006) N (rate*)
- Peritonitis ([1]; 6 months): 3 (0.060) N (rate*)
- Pneumonia ([1]; 6 months): 4 (0.080) N (rate*)
- Urinary tract/kidney infection ([1]; 6 months): 9 (0.187) N (rate*)
- Median time to recurrence of IBS-related symptoms after initial 14-day treatment ([2]; TARGET 3): 8 weeks
- Patients who responded to initial open-label treatment (abdominal pain and/or stool consistency) ([2]; TARGET 3, 550 mg TID 14 d, 1074 of 2579 patients): 41.6%
- Monthly responders for abdominal pain and stool consistency after first repeat treatment ([2]; TARGET 3, 4 weeks following first repeat treatment, 550 mg TID): 33%
- Abdominal Pain Responders: % [2, 4]: (51) %
- Abdominal Pain Responders: n [2, 4]: 166
- Abdominal Pain and Stool Consistency Responders: % [2, 4]: (33) %
- Abdominal Pain and Stool Consistency Responders: n [2, 4]: 107
- Stool Consistency Responders: % [2, 4]: (42) %
- Stool Consistency Responders: n [2, 4]: 138
- Sustained response for abdominal pain and stool consistency ([2]; TARGET 3, no recurrence 10 weeks after repeat treatment): 17%
- Prevention of recurrence of abdominal pain and stool consistency responders ([2]; TARGET 3, no recurrence through second repeat treatment phase (20 weeks)): 13%
- Responders without recurrence of abdominal pain or stool consistency symptoms for 22 weeks following initial treatment ([2]; TARGET 3, number of patients): 382
- IBS-Related Abdominal Pain Responders ([2]; Weeks 3 through 6, Second Repeat Treatment Phase, LOCF Analysis): (52.5%)
- IBS-Related Abdominal Pain and Stool Consistency Responders ([2]; Weeks 3 to 6, Double Blind First Repeat Treatment Phase, LOCF Analysis, ITT): 116/328
- Adverse reaction: ALT increased ([2]; during repeat treatment): 2%
- Adverse reaction: nausea ([2]; during repeat treatment): 2%
- Adverse event rate of repeat treatments ([2]; repeat treatments 550 mg TID): generally below that of placebo
- Effects on pathogen emergence, pathogen susceptibility, microbial population in stool or skin swab samples ([2]; up to 3 treatment cycles): no evidence of significant effects
- Maximum inhibition of rifaximin efflux permeability due to P-glycoprotein inhibition by verapamil ([3]; Caco-2 cells): 12 fold
- P-glycoprotein substrate status ([3]; Caco-2 cells and membrane vesicles): substrate for P-glycoprotein
- Papp A→B ([3]; human, Caco-2 monolayers, 0.5, 5, and 50 μM, read-out: Net permeability in the absorptive direction): ~1 ×10⁻⁶ cm/s
- Decrease of rifaximin ER in presence of GF120918 (0.5 μM) and verapamil (60 μM) ([3]; Round 1): 8- to 12 fold
- Decrease of rifaximin ER in presence of GF120918 (0.5 μM) and verapamil (60 μM) ([3]; Round 2): 3- to 6 fold
